According to patent US20110184147A1, “ENZYME SUBSTRATE FOR LABELING OF PROTEIN” (priority 2008, published 2011):

How the values were obtained:
GTG = biological target: T1, GTG (UniProt P08587); assay: Reactivity of GTG for fluorescent substrate (crosslinking with β-casein); type: biochemical, guinea pig; settings: substrate 1 mM, β-casein 0.5 mg/ml, GTG 0.2 U/ml, 50 mM HEPES pH 7.4, overnight 27° C.
T1 construct: purchased
T1 sequence (P08587 1-690): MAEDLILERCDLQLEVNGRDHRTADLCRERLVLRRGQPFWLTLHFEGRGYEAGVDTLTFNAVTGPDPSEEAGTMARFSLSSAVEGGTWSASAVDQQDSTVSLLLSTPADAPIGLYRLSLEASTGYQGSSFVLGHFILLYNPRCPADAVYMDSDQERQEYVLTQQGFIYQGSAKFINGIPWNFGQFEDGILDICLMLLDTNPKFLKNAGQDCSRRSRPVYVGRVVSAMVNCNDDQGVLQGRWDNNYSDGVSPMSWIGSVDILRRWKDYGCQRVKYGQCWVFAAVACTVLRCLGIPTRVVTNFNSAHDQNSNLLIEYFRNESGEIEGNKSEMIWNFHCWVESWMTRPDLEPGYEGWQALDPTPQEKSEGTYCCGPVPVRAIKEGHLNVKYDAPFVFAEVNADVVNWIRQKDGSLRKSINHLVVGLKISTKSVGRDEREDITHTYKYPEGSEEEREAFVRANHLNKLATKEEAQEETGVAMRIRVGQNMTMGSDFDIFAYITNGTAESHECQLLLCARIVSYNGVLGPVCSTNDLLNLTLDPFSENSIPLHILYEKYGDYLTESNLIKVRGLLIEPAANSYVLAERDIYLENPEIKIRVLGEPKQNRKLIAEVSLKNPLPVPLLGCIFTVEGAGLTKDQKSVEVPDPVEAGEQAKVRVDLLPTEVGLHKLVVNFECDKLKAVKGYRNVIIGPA
Method: In the experiment, β-casein was used as a protein having a TGase-recognizable Lys and a reaction for crosslinking with a fluorescent substrate was performed to evaluate its reactivity for GTG.
To perform a binding reaction, FITC-β-Ala-QG, β-casein and GTG were added to 50 mM HEPES (5 mM NaCl, 10 mM CaCl2, pH 7.4) to give respective final concentrations of 1 mM, 0.5 mg/ml and 0.2 U/ml and the resulting mixture was left to stand overnight at 27° C. Two comparative samples were prepared; one was a GTG-free sample and the other was prepared by performing an MTG-catalyzed reaction. For the MTG-catalyzed binding reaction, FITC-β-Ala-QG, β-casein and MTG were added to a 10 mM phosphate buffer (pH 7) to give respective final concentrations of 1 mM, 0.5 mg/ml and 1 U/ml and the resulting mixture was left to stand overnight at 27° C. Tracing on the sample after the reaction was performed by the same procedure as in Experiment 2-2.

MTG [1] = biological target: T2, MTG (Streptomyces mobaraensis, UniProt P81453); assay: MTG-catalyzed introduction of fluorescent substrates into anti-lysozyme IgG2a antibody; type: biochemical, microbial; settings: substrate 1 mM, mouse anti-lysozyme IgG2a 0.5 mg/ml, MTG 1 U/ml, pH 7, overnight 4° C.; reduced SDS-PAGE
T2 construct: purchased AJINOMOTO (supplied as a gift)
Method: A fluorescent substrate (FITC-ε-Acp-QG, FITC-β-Ala-QG, TR-β-Ala-QG or […]), mouse-derived anti-lysozyme IgG2a antibody (monoclonal) and MTG were added to a 10 mM phosphate buffer (pH 7) to give respective final concentrations of 1 mM, 0.5 mg/ml and 1 U/ml. For the purpose of comparison, an MTG-free sample was prepared. The ingredients were thoroughly agitated and the resulting solution was left to stand overnight at 4° C.
After the reaction, the samples were subjected to SDS-PAGE. The gel from SDS-PAGE was examined with a fluorescent imager before it was stained with a CBB dye solution. For the Dns-ε-Acp-QG containing sample, examination was made with a transilluminator.

MTG [2] = biological target: T2, MTG; assay: MTG-catalyzed introduction of fluorescent substrate into anti-PSA IgG antibody (optimization, substrate comparison); type: biochemical, microbial
Method: To a 50 mM buffer whose pH was varied over the range from 5 to 9 (pH 5 acetate buffer; pH 6-7 phosphate buffer; pH 8 Tris-HCl; pH 9 boric acid buffer), FITC-β-Ala-QG, an anti-PSA (prostate specific antigen) IgG antibody (mouse-derived, monoclonal) and MTG were added to give respective final concentrations of 0.1 mM, 0.5 mg/ml, and 1 U/ml. These ingredients were well stirred and left to stand at 4° C. for reaction. After 1-hr or 6-hr reaction, the sample was mixed with a sample buffer and heated at 95° C. for 15 minutes to stop the reaction. Thereafter, SDS-polyacrylamide gel electrophoresis (SDS-PAGE) was applied. The gel from SDS-PAGE was stained with Coomassie Brilliant Blue (CBB) and observed with a fluorescent imager.
(§1) To 50 mM Tris-HCl (pH 8), FITC-β-Ala-QG, an anti-PSA IgG antibody and MTG were added to give respective final concentrations of 1 mM, 0.5 mg/ml, and 0.001-1 U/ml. These ingredients were well stirred and left to stand at 4° C. for reaction. The reaction was stopped and evaluation was made by the same procedures as in Experiment 2-1.
as §1, with “of 0.001-1” for “of 1”, “and 1” for “and 0.001-1”
To PBS, FITC-β-Ala-QG, an anti-PSA IgG antibody (mouse-derived, monoclonal) and MTG were added to give respective final concentrations of 1 mM, 0.5 mg/ml, and 1 U/ml. These ingredients were well stirred and left to stand at 4° C. or 40° C. for reaction. After 3-, 6- and 18-hr reactions, the reaction was stopped and evaluation was made by the same procedures as in Experiment 2-1.
To PBS, FITC-β-Ala-QG, an anti-PSA IgG antibody (mouse-derived, monoclonal) and MTG were added to give respective final concentrations of 1 mM, 0.5 mg/ml, and 1 U/ml. These ingredients were well stirred and left to stand for 18 hours at 4° C. for reaction. For the purpose of comparison, two additional samples were prepared, one being free of FITC-β-Ala-QG-biotin and the other having been reacted with a biotin-free fluorescent substrate (FITC-β-Ala-QG). After the reaction, the samples were purified by ultrafiltration (product of MILLIPORE Corp.; 100 kDa cut).

T2 sequence (P81453 77-407): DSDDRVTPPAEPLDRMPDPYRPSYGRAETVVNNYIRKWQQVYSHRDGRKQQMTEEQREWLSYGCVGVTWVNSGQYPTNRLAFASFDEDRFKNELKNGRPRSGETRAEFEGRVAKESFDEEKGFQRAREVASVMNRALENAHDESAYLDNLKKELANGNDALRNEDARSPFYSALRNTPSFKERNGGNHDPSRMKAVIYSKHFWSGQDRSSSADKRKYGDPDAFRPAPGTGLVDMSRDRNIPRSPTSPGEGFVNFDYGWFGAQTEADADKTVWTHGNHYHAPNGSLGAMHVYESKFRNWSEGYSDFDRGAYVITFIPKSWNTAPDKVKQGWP

NC(=O)CCC(NC(=O)CCNC(=S)Nc1ccc(-c2c3ccc(=O)cc-3oc3cc(O)ccc23)c(C(=O)O)c1)C(=O)NCC(=O)O (stereo not drawn) [FITC-β-Ala-QG]
Reactivity of fluorescent substrate for GTG (GTG): also recognized by MTG | Reactivity of antibody with fluorescent substrate by MTG catalysis (MTG [1]): H chains of the antibody are modified | pH of highly efficient introduction into antibody (MTG [2]; anti-PSA IgG antibody, substrate 0.1 mM, MTG 1 U/ml, 4° C., 1 and 6 hours): ~7 | Substrate concentration dependency of antibody labeling (MTG [2]; anti-PSA IgG antibody, substrate 0.001-1 mM, MTG 1 U/ml, pH 8, 4° C.): proceeded with the increasing substrate concentration | MTG concentration at which a highly efficient reaction proceeded (MTG [2]; anti-PSA IgG antibody, substrate 1 mM, pH 8, 4° C., MTG 0.001-1 U/ml): 1 U | Introduction into the antibody (MTG [2]; before the addition of the resin (lanes 1-3)): verified the introduction
